Assay results: ChEMBL document CHEMBL6078664, “Abietane Diterpenoids from the Rhizomes of Kaempferia roscoeana and Their Anti-Inflammatory Activities” (J Nat Prod, 2024)

Assays:
RAW264.7 [1] = experiment: Antiinflammatory activity in LPS-induced mouse RAW264.7 cells assessed as inhibition of NO production preincubated for 1 hr followed by LPS stimulation and measured after 24 hrs by microplate reader based analysis; format: functional, cell-based
RAW264.7 [2] = experiment: Cytotoxicity against mouse RAW264.7 cells incubated for 24 hrs by MTT assay; format: functional, cell-based; settings: RAW264.7, 24 h

SMILES | IC50 (RAW264.7 [1]) [µM] | IC50 (RAW264.7 [2]) [µM]
CC(C)C1=CC2=CC[C@H]3C(C)(C)CCC[C@]3(C=O)[C@@]2(O)CC1 | 4.3 | > 50
CC(C)[C@]1(O)C=C2CC[C@H]3C(C)(C)CCC[C@]3(C)[C@@]2(O)CC1 | 3.6 | > 50
CO[C@@H]1O[C@]23C=C(C(C)C)CC[C@]2(O)[C@]12CCCC(C)(C)[C@@H]2CC3 | 4.1 | > 50
CC(C)C1=C[C@@]23CC[C@H]4C(C)(C)CCC[C@]4([C@H](O)O2)[C@@]3(O)CC1 | > 50 | > 50
CC(C)C1=C[C@]23OC[C@@]4(CCCC(C)(C)[C@@H]4C[C@H]2O)[C@@]3(O)CC1 | 20 | > 50
C[C@@H]1C[C@H]2[C@@H]3CCC4=CC(=O)C=C[C@]4(C)[C@@]3(F)[C@@H](O)C[C@]2(C)[C@@]1(O)C(=O)CO [DEXAMETHASONE] | 0.3 | > 50
CC(C)C1=C[C@@]23CC[C@H]4C(C)(C)CCC[C@]4(CO2)[C@@]3(O)CC1 | 36.8 | 44.4
CC(C)[C@]1(O)C=C2[C@H](O)C[C@H]3C(C)(C)CCC[C@]3(C)[C@@]2(O)CC1 | 13.7 | > 50
